Reference: patent US6461644B1, “Anesthetizing plastics, drug delivery plastics, and related medical products, systems and methods” (priority 1996, dated 2002)

Assays:
[1] = tested on: skin; test: Demonstrations of anesthetizing plastic, tapes and adhesive films on skin; type: in vivo, human; details: employed instead of lidocaine
Source text: […]. For instance, lidocaine added to polyvinyl chloride is all that is needed to create a soft, stretchy, elastic vinyl milled film or sheet. Like the common vinyl plasticizer di-isooctyl phthalate, lidocaine base slowly migrates to the surface of the formed object, to serve as a sustained source of anesthetic to tissue contacted by the device. The rate of drug delivery is governed by the selected concentration of the drug, the selected plastic resin and the acceptance rate of the part of the body with which the anesthetizing plastic is in contact. […]. A piece of such milled vinyl anesthetic material has remained taped to skin for 10 days without any diminution of anesthetizing effect or apparent loss of plasticization.
. […]. However, when this adhesive-topical anesthetic mixture is applied to polyethylene film as a carrier and is pressed with a warm hand to human skin, sufficient tackiness is observed that the film clings to the applied areas effectively, but can be readily removed. The tacky product is suitably dispensed with the tacky layer protected by contact with silicone coated release paper.
With such devices, in 1-3 hours topical anesthesia of the skin is established, which will last for 2-3 days if the film patch is left in place. Washing the skin e.g. with lauramide surfactant prior to applying the film decreases the onset time for skin anesthesia. […]

[2] = Procedure: In one case, in the course of manufacture, propafenone is dissolved in orally administratable solid granules such as coarse or fine powder of non-biodegradable thermoplastic resin. […] In another embodiment, the resin is formed on or as an implant to release the drug directly to heart tissue or the blood stream, or as a transdermal patch or as a drug-applying ear or nose plug.

Row | Structure (SMILES) | duration of anesthesia following removal compared with lidocaine [1] | amount held by PVC ([2]; PVC) | amount in solution in PVC that can be employed ([2]; PVC) | amount held by CPE ([2]; chlorinated polyethylene, by milling) | amount held by EP ([2]; ethylene propylene, by milling)
1 | CCCCOc1cc(C(=O)NCCN(CC)CC)c2ccccc2n1 [dibucaine] | substantially longer | – | – | – | –
2 | CCN(CC)CC(=O)Nc1c(C)cccc1C [lidocaine base] | – | about 50% | ≥ 50 % by weight | about 25% | about 25%
3 | CCCCNc1ccc(C(=O)OCCN(C)C)cc1 [tetracaine] | substantially longer | – | – | – | –
